Test system: 786-0 complex spheroids with HUVEC/MSC, growth % test/control
Test: Anticancer human tumor 786-0 cell line growth inhibition [AhR];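 also: compound exposure lasted seven days before the read-out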
Conditions: for IC50: curve of first compound; for viability, T/C: stronger effect = lower value
How it was run: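 Spheroids combined tumor cells with HUVEC endothelial cells and human MSCs as stroma. AhR antagonists were paired with standard or investigational drugs, each dosed in half-log steps down from near clinical Cmax, or from 10 microM where Cmax was unknown.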

[1] = second compound 0.1 µM, first compound 0.0316 µM
[2] = second compound 0.1 µM, first compound 0.1 µM
[3] = second compound 0.316 µM, first compound 0.0316 µM
[4] = second compound 0.316 µM, first compound 0.1 µM
[5] = second compound 1 µM, first compound 0.0316 µM
[6] = second compound 1 µM, first compound 0.1 µM
[7] = second compound 3.16 µM, first compound 0.0316 µM
[8] = second compound 3.16 µM, first compound 0.1 µM
[9] = second compound 10 µM, first compound 0.0316 µM
[10] = second compound 10 µM, first compound 0.1 µM

Work on `Cn1ncnc1C1c2n[nH]c(=O)c3cc(F)cc(c23)NC1c1ccc(F)cc1` (stereo not given) + Cc1ccccc1N=Nc1ccc(NC(=O)c2ccnn2C)c(C)c1 yielded an IC50 (second compound 0.1 µM) of over 100 nM, an IC50 (second compound 0.316 µM) of over 100 nM and an IC50 (second compound 1 µM) of over 100 nM. It also gave an IC50 (second compound 3.16 µM) of over 100 nM, an IC50 (second compound 10 µM) of over 100 nM and a viability, T/C (second compound 0.1 µM, first compound 0.000316 µM) of 104%. For the same compound, the viability, T/C (second compound 0.1 µM, first compound 0.001 µM) was 102%, the viability, T/C (second compound 0.1 µM, first compound 0.00316 µM) was 107% and the viability, T/C (second compound 0.1 µM, first compound 0.01 µM) was 101%. The viability, T/C [1] was 101%, the viability, T/C [2] was 107% and the viability, T/C (second compound 0.316 µM, first compound 0.000316 µM) was 103%. It also gave a viability, T/C (second compound 0.316 µM, first compound 0.001 µM) of 106%, a viability, T/C (second compound 0.316 µM, first compound 0.00316 µM) of 106% and a viability, T/C (second compound 0.316 µM, first compound 0.01 µM) of 106%. It also gave a viability, T/C [3] of 110%, a viability, T/C [4] of 111% and a viability, T/C (second compound 1 µM, first compound 0.000316 µM) of 101%. It also gave a viability, T/C (second compound 1 µM, first compound 0.001 µM) of 106%, a viability, T/C (second compound 1 µM, first compound 0.00316 µM) of 108% and a viability, T/C (second compound 1 µM, first compound 0.01 µM) of 117%. It also gave a viability, T/C [5] of 99.7%, a viability, T/C [6] of 110% and a viability, T/C (second compound 3.16 µM, first compound 0.000316 µM) of 92.3%. The viability, T/C (second compound 3.16 µM, first compound 0.001 µM) was 105%, the viability, T/C (second compound 3.16 µM, first compound 0.00316 µM) was 92% and the viability, T/C (second compound 3.16 µM, first compound 0.01 µM) was 94%. The viability, T/C [7] was 88.9%, the viability, T/C [8] was 91.2% and the viability, T/C (second compound 10 µM, first compound 0.000316 µM) was 98.6%. It also gave a viability, T/C (second compound 10 µM, first compound 0.001 µM) of 112%, a viability, T/C (second compound 10 µM, first compound 0.00316 µM) of 90.5% and a viability, T/C (second compound 10 µM, first compound 0.01 µM) of 93.5%. For the same compound, the viability, T/C [9] was 95.3% and the viability, T/C [10] was 112%.

`NS(=O)(=O)OCC1CC(n2ccc3c(NC4CCc5ccccc54)ncnc32)CC1O` (stereo not given) + Cc1ccccc1N=Nc1ccc(NC(=O)c2ccnn2C)c(C)c1 showed an IC50 (second compound 0.1 µM) of 563 nM, an IC50 (second compound 0.316 µM) of 652 nM and an IC50 (second compound 1 µM) of 499 nM. For the same compound, the IC50 (second compound 3.16 µM) was 437 nM, the IC50 (second compound 10 µM) was 374 nM and the viability, T/C [1] was 90%. It also gave a viability, T/C [2] of 78.6%, a viability, T/C (second compound 0.1 µM, first compound 0.316 µM) of 65.5% and a viability, T/C (second compound 0.1 µM, first compound 1 µM) of 37%. The viability, T/C (second compound 0.1 µM, first compound 3.16 µM) was 8.68%, the viability, T/C (second compound 0.1 µM, first compound 10 µM) was 5.47% and the viability, T/C [3] was 87.3%. It also gave a viability, T/C [4] of 69.5%, a viability, T/C (second compound 0.316 µM, first compound 0.316 µM) of 68.1% and a viability, T/C (second compound 0.316 µM, first compound 1 µM) of 42.2%. The viability, T/C (second compound 0.316 µM, first compound 3.16 µM) was 10.6%, the viability, T/C (second compound 0.316 µM, first compound 10 µM) was 6.57% and the viability, T/C [5] was 88%. The viability, T/C [6] was 68%, the viability, T/C (second compound 1 µM, first compound 0.316 µM) was 63.2% and the viability, T/C (second compound 1 µM, first compound 1 µM) was 37.5%. For the same compound, the viability, T/C (second compound 1 µM, first compound 3.16 µM) was 9.47%, the viability, T/C (second compound 1 µM, first compound 10 µM) was 5.05% and the viability, T/C [7] was 73.8%. The viability, T/C [8] was 65%, the viability, T/C (second compound 3.16 µM, first compound 0.316 µM) was 59.4% and the viability, T/C (second compound 3.16 µM, first compound 1 µM) was 29.1%. For the same compound, the viability, T/C (second compound 3.16 µM, first compound 3.16 µM) was 9.11%, the viability, T/C (second compound 3.16 µM, first compound 10 µM) was 4.17% and the viability, T/C [9] was 76.1%. It also gave a viability, T/C [10] of 69.5%, a viability, T/C (second compound 10 µM, first compound 0.316 µM) of 54.3% and a viability, T/C (second compound 10 µM, first compound 1 µM) of 27.4%. The viability, T/C (second compound 10 µM, first compound 3.16 µM) was 11.3% and the viability, T/C (second compound 10 µM, first compound 10 µM) was 6.68%.

Work on `Nc1ncn(C2CC(O)C(CO)S2)c(=O)n1` (stereo not given) + Cc1ccccc1N=Nc1ccc(NC(=O)c2ccnn2C)c(C)c1 yielded an IC50 (second compound 0.1 µM) of over 300 nM, an IC50 (second compound 0.316 µM) of over 300 nM and an IC50 (second compound 1 µM) of over 300 nM. The IC50 (second compound 3.16 µM) was over 300 nM, the IC50 (second compound 10 µM) was over 300 nM and the viability, T/C (second compound 0.1 µM, first compound 0.000949 µM) was 102%. It also gave a viability, T/C (second compound 0.1 µM, first compound 0.003 µM) of 99.8%, a viability, T/C (second compound 0.1 µM, first compound 0.00949 µM) of 105% and a viability, T/C (second compound 0.1 µM, first compound 0.03 µM) of 99.6%. It also gave a viability, T/C (second compound 0.1 µM, first compound 0.0949 µM) of 83.6%, a viability, T/C (second compound 0.1 µM, first compound 0.3 µM) of 68.7% and a viability, T/C (second compound 0.316 µM, first compound 0.000949 µM) of 100%. The viability, T/C (second compound 0.316 µM, first compound 0.003 µM) was 100%, the viability, T/C (second compound 0.316 µM, first compound 0.00949 µM) was 103% and the viability, T/C (second compound 0.316 µM, first compound 0.03 µM) was 98.2%. The viability, T/C (second compound 0.316 µM, first compound 0.0949 µM) was 100%, the viability, T/C (second compound 0.316 µM, first compound 0.3 µM) was 73.1% and the viability, T/C (second compound 1 µM, first compound 0.000949 µM) was 99.6%. It also gave a viability, T/C (second compound 1 µM, first compound 0.003 µM) of 96.5%, a viability, T/C (second compound 1 µM, first compound 0.00949 µM) of 112% and a viability, T/C (second compound 1 µM, first compound 0.03 µM) of 97.1%. For the same compound, the viability, T/C (second compound 1 µM, first compound 0.0949 µM) was 91.2%, the viability, T/C (second compound 1 µM, first compound 0.3 µM) was 75% and the viability, T/C (second compound 3.16 µM, first compound 0.000949 µM) was 93.3%. It also gave a viability, T/C (second compound 3.16 µM, first compound 0.003 µM) of 99.9%, a viability, T/C (second compound 3.16 µM, first compound 0.00949 µM) of 94% and a viability, T/C (second compound 3.16 µM, first compound 0.03 µM) of 101%. It also gave a viability, T/C (second compound 3.16 µM, first compound 0.0949 µM) of 86%, a viability, T/C (second compound 3.16 µM, first compound 0.3 µM) of 69.6% and a viability, T/C (second compound 10 µM, first compound 0.000949 µM) of 91.1%. It also gave a viability, T/C (second compound 10 µM, first compound 0.003 µM) of 108%, a viability, T/C (second compound 10 µM, first compound 0.00949 µM) of 90.8% and a viability, T/C (second compound 10 µM, first compound 0.03 µM) of 88.2%. For the same compound, the viability, T/C (second compound 10 µM, first compound 0.0949 µM) was 82.8% and the viability, T/C (second compound 10 µM, first compound 0.3 µM) was 63.4%.

— PubChem BioAssay AID1919003 (Molecular Pharmacology Branch, DTP, NCI, 2023)
